Data taken from patent US12202805B2, “Process for preparing (5S)-{[2-(4-carboxyphenyl)ethyl] |2-(2-{|3-chloro-4'-(trifluoromethyl)biphenyl-4-yl]methoxy}phenyl)ethyl]aminol-5,6,7,8-tetrahydroquinoline-2-carboxylic acid and its crystalline forms for use as pharmaceutically active compound” (Bayer Aktiengesellschaft, priority 2021, dated 2025).

What was measured:
sGC = assay: E-2.1 inhalative administration in healthy male subjects for 7 days: cGMP in blood samples; format: in vivo, human
Experimental: E-2.1 Inhalative Administration of sGC Activators in Healthy Male Subjects for 7 Days—cGMP and Bronchodilatation
(§1) Healthy White male subjects, aged 18 to 45 years and with a body mass index (BMI) above/equal 18.5 and below/equal 29.9 kg/m2 were treated in a clinical pharmacological phase I study on seven days with inhaled once daily doses of 480 μg or 1000 μg or 2000 μg (2 capsules of 1000 μg) (nominal dose) of dry powder formulations comprising example 2 or Placebo. The subjects inhaled the drug powder from capsules (see under C-1, e.g. tables 22 and 23) inserted into a handheld inhalation device by one deep inhalative breath. The dry powder formulation of the drug is dispersed into the airstream and fine particles are transported into the deep parts of the lung where it is intended to cause a vasodilation of the blood vessels in PH patients for a substantial reduction of increased blood pressure in the central pulmonary blood vessels in PAH patients or other subtypes of PH. This effect cannot be shown in subjects with healthy lungs. In addition inhaled drug causes a dilation of the bronchial airways and thus also improves disease states of lung diseases in PH patients with pathological bronchoconstriction. This effect was measured via bodyplethysmography as reduction of Specific Airway Resistance in healthy subjects. After the deep inhalative breath the subjects hold breath for 2 seconds, so that the dry powder drug condenses from the airstream onto the surface of the deeper lung areas where it is deposited close to its site of intended pharmacological action. The drug dissolutes over the day and equilibrates the lung via lining fluid.
Drug activity in healthy men was controlled in the healthy subjects by analysing blood samples for cGMP, the immediate product of sGC pharmacological activation prior after the first and after the last drug inhalation of the 7 days treatment in comparison to measurements on the pretreatment day for all doses.

[1] = E-2.1 plasma concentrations over time after inhalation in healthy male subjects; format: in vivo, human; conditions: all doses administered
Experimental: as §1, with “After the deep inhalative breath the subjects hold breath for 2 seconds, so that the dry powder drug condenses from the airstream onto the surface of the deeper lung areas where it is deposited close to its site of intended pharmacological action. The drug dissolutes over the day and equilibrates the lung via lining fluid.” left out

[2] = system: chronic ovalbumin asthma mice model; assay: Chronic ovalbumin asthma mice model; conditions: mouse, in vivo
[3] = Determination of thermal stability (solid, 7 days at 90° C., HPLC); format: physicochemical; conditions: HPLC peak areas
Experimental: Determination of thermal stability of comparative example 11:
0.3 mg of the comparative example 11 were solved in 0.1 ml dimethylsulfoxide and 0.4 ml acetonitrile. Then 1.0 ml water was added. For complete dissolution the HPLC vial was shaken and sonicated. This solution was immediately analyzed by HPLC (reference at t0). 0.3 mg of the test compound was weighed into another HPLC vial. The vial was capped and stored for 7 days in a heating block at 90° C.
After this time the vial was decapped and 0.1 ml dimethylsulfoxide and 0.4 ml acetonitrile were added to the stressed compound. Then 1.0 ml water was added. For complete dissolution the HPLC vial was shaken and sonicated. The sample was analyzed by HPLC (sample after 1 week). The peak areas in percentage are used for quantification.

[4] = Protein binding via Transil assay, dog plasma; format: in vitro ADME
Experimental: Protein Binding of Comparative Example 11 and Comparative Example 1 was Analyzed Via Transil Assay, Described Below.
The distribution of a test substance between Transil® (phosphatidylcholine lipid bilayers immobilized on silica beads) and plasma is a characteristic feature of any pharmaceutical compound and is dependent on its extent of binding to plasma proteins. By comparing the distribution between Transil® and buffer with the distribution between Transil® and plasma of any species of interest, the unbound fraction in the plasma of the respective animal species can be calculated in vitro. The respective plasma and buffer concentrations were determined via a radioactivity analysis. A detailed description of the method and its validation was published by Schuhmacher et al. (2).

[5] = system: unilateral ventilated minipig model; assay: Unilateral ventilated minipig model as a proxy of VQ-mismatch; format: in vivo; conditions: inhaled application
[6] = system: acetylcholine [ACh] rat model; assay: Acetylcholine [ACh] rat model (bronchodilation); conditions: in vivo
[7] = system: patients with PAH or CTEPH; assay: E-2.4 inhaled single doses in patients with PAH or CTEPH: PVR, mPAP (right heart catheterization), safety; format: in vivo, human
Experimental: E-2.4 Inhaled Administration of Single Doses to Patients with PAH or CTEPH to Investigate the Reduction of Pulmonary Vascular Resistance (PVR)
Patients with PAH or CTEPH aged 18 to 80 years were treated in a clinical phase 1b study with orally inhaled single doses* of 240 μg (2 capsules of 120 μg), 480 μg (1 capsule of 480 μg), 1000 μg (1 capsule of 1000 μg), 2000 μg (2 capsules of 1000 μg) or 4000 μg (4 capsules of 1000 μg) of a dry powder formulation comprising example 4 (see C-1, e.g. tables 17 and 20) inserted into a handheld inhalation device, inhaled by deep inhalative breath into the deep parts of the lung (*single dose means the administration of one dosage form/capsule as well as administration of two or more dosage forms/capsules simultaneously or consecutively within a short time period). The included patients had no background treatment with standard of care (SoC) medication for PAH or CTEPH (such as endothelin antagonists, prostanoids, phosphodiesterase type 5 inhibitor or soluble guanylate cyclase stimulators). Patients in this study underwent invasive right heart catheterization as medically indicated routine diagnostic. Primary objective of the study was to investigate the peak percent reduction from baseline in PVR. Patients had to have a baseline pulmonary artery pressure (mPAP) of ≥25 mmHg and a PVR of ≥400 dyn·sec·cm^−5 (5 Wood Units) and were not to show vaso-responsiveness to initial iNO inhalation testing to be included in the per protocol analysis. Plasma concentrations (pharmacokinetics) of the administered drug at several time points after administration were measured and safety and tolerability was assessed.
The study is divided into two parts, Part A and Part B. In Part A escalating aforementioned single doses were administered to patients without background treatment with standard of care (SoC) medication for PAH or CTEPH (such as endothelin antagonists, prostanoids, phosphodiesterase type 5 inhibitor or soluble guanylate cyclase stimulators). In Part B, after finalization of Part A, a selected dose from PartA will be tested in further patients without background SoC treatment (group 1) and additionally in patients on monotherapy with SoC (group 2) and on dual combination therapy with SoC (group 3).
The PVR is a derived parameter from parameters directly measured during the right heart catheterization procedure. The direct parameters included in the calculation are: mean pulmonary arterial pressure [mmHg](mPAP), pulmonary capillary wedge pressure [mmHg] (PCWP), and cardiac output [1/min] (CO). The PVR is calculated according to the formula: PVR [dyn*sec*cm^−5]=80*(mPAP˜PCWP)/CO.

## O=C(O)c1ccc(CCN(CCc2ccccc2OCc2ccc(-c3ccc(C(F)(F)F)cc3)cc2Cl)[C@H]2CCCc3nc(C(=O)O)ccc32)cc1 [example 2, (5S)—{[2-(4-Carboxyphenyl)ethyl][2-(2-{[3-chloro-4′-(trifluoromethyl)biphenyl-4-yl]methoxy}phenyl)-ethyl]amino}-5,6,7,8-tetrahydroquinoline-2-carboxylic acid as Monohydrate II]
sGC; 480 μg, 8 D 00 H 00 M
  cGMP over time (mean): 7.20 ± 3.23 nmol/L
sGC; 480 μg, 8 D 12 H 00 M
  cGMP over time (mean): 6.20 ± 2.00 nmol/L
sGC; 480 μg, −0 D 09 H 00 M
  cGMP over time (mean): 5.60 ± 1.08 nmol/L
sGC; 480 μg, −1 D 02 H 00 M
  cGMP over time (mean): 5.40 ± 1.41 nmol/L
sGC; 1000 μg, 5 D 00 H 00 M
  cGMP over time (mean): 8.50 ± 2.13 nmol/L
sGC; 1000 μg, −0 D 22 H 00 M
  cGMP over time (mean): 5.10 ± 1.46 nmol/L
sGC; 2000 μg, 2 D 00 H 00 M
  cGMP over time (mean): 6.40 ± 2.09 nmol/L
sGC; 2000 μg, 3 D 00 H 00 M
  cGMP over time (mean): 10.00 ± 3.51 nmol/L
sGC; 2000 μg, 8 D 00 H 00 M
  cGMP over time (mean): 16.00 ± 5.77 nmol/L
sGC; 2000 μg, 9 D 12 H 00 M
  cGMP over time (mean): 9.40 ± 3.10 nmol/L
sGC; first profile day, 1000 μg inhaled
  peak mean±SD cGMP value: 11.69 ± 1.86 nmol/L
[1]
  persistence of measurable plasma concentration after first inhalation: 48 h

## O=C(O)c1ccc(CCN(CCc2ccccc2OCc2ccc(-c3ccc(C(F)(F)F)cc3)cc2Cl)[C@H]2CCCc3nc(C(=O)O)ccc32)cc1 [comparative example 11, (5S)-5-{[2-(4-carboxyphenyl)ethyl][2-(2-{[3-chloro-4′-(trifluoromethyl)[biphenyl]-4-yl]methoxy}phenyl)ethyl]amino}-5,6,7,8-tetrahydroquinoline-2-carboxylic acid]
[2]
  effect on airway hyper-responsiveness and inflammation: inhibitory effect on airway hyper-responsiveness and inflammation
[3]
  thermal stability: stable
[4]
  fraction unbound, times lower than comparative example 1: 10 times
[5]
  effect on PAP and oxygenation: lowered PAP without negative effects on oxygenation
[6]
  effect on ventilation: bronchodilatory effect

## O=C(O)c1ccc(CCN(CCc2ccccc2OCc2ccc(-c3ccc(C(F)(F)F)cc3)cc2Cl)[C@H]2CCCc3nc(C(=O)O)ccc32)cc1 [example 4, (5S)—{[2-(4-Carboxyphenyl)ethyl][2-(2-{[3-chloro-4′-(trifluoromethyl)biphenyl-4-yl]methoxy}phenyl)-ethyl]amino}-5,6,7,8-tetrahydroquinoline-2-carboxylic acid as Monohydrate I]
[7]; at any dose
  changes of systemic blood pressure, heart rate and oxygen saturation: did not represent a safety concern
[7]; including the highest dose of 4000 μg
  tolerability: good tolerability
[7]; patients with PAH or CTEPH
  systemic cGMP: Increase
[7]; until end of the measurement period
  duration of sustained effect with no decrease in response: ≥ 3 h
